Source: paper PMC4684281, “Antitumor Effects and Mechanism of Novel Emodin Rhamnoside Derivatives against Human Cancer Cells In Vitro” (PLoS ONE, 2015)
Converted amounts (≈) assume the structure as drawn. “And” between values parts separate entries of the source, which are not always exact repeats. Equal entries are not always repeated. “Also recorded” adds a separate entry of the source. Where two headings read alike, the source gives them in different places.

Legend:
[1] = system: Cyto C, caspase-3 and caspase-9 proteins in HepG2 cells; test: Western blot analysis of apoptotic proteins; format: cell-based, Human; details: HepG2, compared to control group
Description: HepG2 cells were inoculated, cultured and harvested as described previously. Afterwards, the experiment was performed on ice. The harvested cell pellet was washed with cold PBS before being resuspended in 300μL cytosol lysis buffer through vortex. Then cells of all samples were lysed by sonication method on the ice using the ultrasonic cell disruptor (100 W for 30s×4 times). Total protein of each sample was measured by Bradford assay using protein quantification reagents from Bio-Rad. All samples were added 2×loading buffer before analyzing on 12% gels by SDS-PAGE. Then the proteins were transferred to nitrocellulose membranes by electro-blotting. The membranes were blocked in 1% bovine serum albumin (BSA) or 5% milk solution at room temperature for 30min, followed by incubation with the primary antibody against rabbit (Univ-bio, China) at 4°C overnight. The membranes were then washed three times with 1×TBST, each time last for 5 mins. The membranes were then incubated with the secondary antibodies for 3 h at 4°C, followed by washing with 1×TBST as described previously. Finally, the immuno-reactive bands were detected and documented using an enhanced chemiluminescent Western blotting system (Thermo-scientific, USA) on a Versa Doc imaging system.

HUVEC = test: MTT cell viability assay, HUVEC; format: cell-based; details: Homo sapiens, MTT at 72h, n=3, mean±S.E.M, read-out: IC50 for EM-d-Rha, HUVEC
Description: (§1) The viability of cancer cells was evaluated by MTT assay. Briefly, cells were inoculated in 96-well culture plates at the density of 1×10^4/well with complete medium containing 10% fetal calf serum in a final volume of 0.2 mL. Cells were incubated at 37°C for at least 24 hours to allow optimal attachment. When the cells reached 60% confluence, they were treated with Cisplatin, HCPT and emodin rhamnopyranosides derivatives in various concentrations, and incubated in a humidity-controlled 5%CO2 incubator at 37°C for 72 hours. Medium were exchanged once every 24 hours. Cell control group and blank group were set up in the same manner, with each group having six parallel wells. Cell survival was assessed by directly adding 22 μL of 5mg/mL MTT to 0.2 mL medium. After three hours, the formazan precipitate was dissolved in 200μL isopropanol per well, and completely mixed under room temperature. Afterwards, the optical density of each well was detected at 570 nm wavelength by iMark microplate reader (Bio-rad,USA). This experiment was repeated at least three times.

MCF-7 cells = test: MTT cell viability assay, MCF-7; format: cell-based; details: Homo sapiens, MCF7
Description: as §1

SGC-7901 cells = test: MTT cell viability assay, SGC-7901; format: cell-based; details: Homo sapiens
Description: as §1

HepG2 cells [2] = test: Fluorescence microscopy assay (Hoechst 33342); format: cell-based, Human; details: HepG2, varying concentrations (0.1μM; 0.5μM; 2.5μM), 48h, dosage-dependent
Description: HepG2 cells were inoculated in duplicate at 3×10^5/well density in 6-well plate, and allowed to attach at 37°C for 24 hours. Afterwards, cells were treated with 10 μM HCPT, 25 μM emodin and specific concentration EM-d-Rha (0.1μM, 0.5μM, 2.5μM), respectively. Cell control group was set in the same way. […] Medium were exchanged as described previously. In the end, all medium were discarded and cells were digested with 2mL 0.25% Trypsin-EDTA solution at 37°C for 5 min. After cells were harvested, cells were washed with PBS twice followed by centrifuging at 300×g for 5 minutes. Finally, cells were re-suspended in 100μL cold PBS after the supernatant was discarded. Cells were cultured in the dark for 10 minutes at room temperature after adding 100μL 1mg/mL Hoechst 33342 staining solution. Cells were harvested again as described previously to discard the staining solution. Wash the harvested cells twice with PBS before applying to the clean glass slides. The morphological changes of cells nuclei were observed and photographed under the fluorescence microscope (Olympus, Japan) at 350 nm excitation wavelength. The experiment was repeated three times.

K562 cells = test: MTT cell viability assay, K562; format: cell-based; details: Homo sapiens
Description: as §1

HepG2 cells [3] = test: MTT cell viability assay, HepG2; format: cell-based, Human; details: for IC50: HepG2
Description: as §1

OVCAR-3 cells = test: Flow cytometry apoptosis analysis (Annexin V/7-AAD), OVCAR-3; format: cell-based, Human; details: 48h (Fig 8 legend: 72h); for Late apoptosis: control 4.87±1.42; for Early apoptosis: control 13.01±5.81; for Living cell: control 81.36±8.14
MDCK cells = test: MTT cell viability assay, MDCK; format: cell-based, Canine; details: Canis lupus familiaris, 72 hours
Description: as §1

[4] = OVCAR-3, 10μM, listed as EM-d-Rha

## CC(=O)O[C@@H]1[C@@H](O[C@@H]2O[C@@H](C)[C@H](O)[C@@H](OC(C)=O)[C@H]2OC(C)=O)[C@H](C)O[C@@H](Oc2cc(O)c3c(c2)C(=O)c2cc(C)cc(O)c2C3=O)[C@@H]1OC(C)=O [S-8, 3-(2”,3”-Di-O-acetyl-α-L-rhamnopyranosyl-(1→4)-2’,3’-di-O-acetyl-α-L-rhamnopyranosyl)-emodin]
[1]
  Expression levels of Cyto C, caspase-3 and caspase-9 proteins (western-blot): three proteins expression increased at a concentration-dependent manner
HUVEC
  IC50: 18.7 ± 3.9 µM
MCF-7 cells; MCF-7, 0.1μM, MTT 72h, read-out: The inhibition rate of EM-d-Rha
  inhibition at 0.1 µM: 16.8 ± 1.4%
MCF-7 cells; MCF-7, 0.5μM, MTT 72h, read-out: The inhibition rate of EM-d-Rha
  inhibition at 0.5 µM: 20.1 ± 3.83%
MCF-7 cells; MCF-7, 2.5μM, MTT 72h, read-out: The inhibition rate of EM-d-Rha
  inhibition at 2.5 µM: 41.4 ± 6.53%
MCF-7 cells; MCF-7, 12.5μM, MTT 72h, read-out: The inhibition rate of EM-d-Rha
  inhibition at 12.5 µM: 62.7 ± 6.81%
MCF-7 cells; MCF-7, 62.5μM, MTT 72h, read-out: The inhibition rate of EM-d-Rha
  inhibition at 62.5 µM: 77.1 ± 5.1%
MCF-7 cells; MTT at 72h, n=3, mean±S.E.M, read-out: IC50 for EM-d-Rha, MCF-7
  IC50: 8.56 ± 1.04 µM
SGC-7901 cells; MTT at 72h, n=3, mean±S.E.M, read-out: IC50 for EM-d-Rha, SGC-7901
  IC50: 1.99 ± 0.12 µM
SGC-7901 cells; SCG-7901, 0.1μM, MTT 72h, read-out: The inhibition rate of EM-d-Rha
  inhibition at 0.1 µM: 20.1 ± 0.18%
SGC-7901 cells; SCG-7901, 0.5μM, MTT 72h, read-out: The inhibition rate of EM-d-Rha
  inhibition at 0.5 µM: 40.99 ± 0.02%
SGC-7901 cells; SCG-7901, 2.5μM, MTT 72h, read-out: The inhibition rate of EM-d-Rha
  inhibition at 2.5 µM: 42.63 ± 0.02%
SGC-7901 cells; SCG-7901, 12.5μM, MTT 72h, read-out: The inhibition rate of EM-d-Rha
  inhibition at 12.5 µM: 95.01 ± 0.01%
SGC-7901 cells; SCG-7901, 62.5μM, MTT 72h, read-out: The inhibition rate of EM-d-Rha
  inhibition at 62.5 µM: 94.33 ± 0.05%
HepG2 cells [2]
  Nuclear morphology, Hoechst 33342: nuclear shrinkage and DNA condensation
K562 cells; K562, MTT at 72h, n=3, mean±S.E.M, read-out: IC50 for EM-d-Rha, K562
  IC50: 2.8 ± 0.11 µM
K562 cells; K562, 0.1μM, MTT 72h, read-out: The inhibition rate of EM-d-Rha
  inhibition at 0.1 µM: 0%
K562 cells; K562, 0.5μM, MTT 72h, read-out: The inhibition rate of EM-d-Rha
  inhibition at 0.5 µM: 15.1 ± 1.13%
K562 cells; K562, 2.5μM, MTT 72h, read-out: The inhibition rate of EM-d-Rha
  inhibition at 2.5 µM: 45.86 ± 0.11%
K562 cells; K562, 12.5μM, MTT 72h, read-out: The inhibition rate of EM-d-Rha
  inhibition at 12.5 µM: 78.74 ± 0.01%
K562 cells; K562, 62.5μM, MTT 72h, read-out: The inhibition rate of EM-d-Rha
  inhibition at 62.5 µM: 80.64 ± 0.03%
HepG2 cells [3]; HepG2 treated for three day, Fig 3, listed as EM-d-Rha
  Activity against HepG2 cells relative to comparators (dose-response curves): stronger in comparison to that of emodin; also recorded: inferior as compared to that of Cisplatin and HCPT
HepG2 cells [3]; Homo sapiens, MTT at 72h, n=3, mean±S.E.M, read-out: IC50 for EM-d-Rha, HepG2
  IC50: 1.81 ± 0.44 µM
HepG2 cells [3]; Homo sapiens, MTT, 72 hours, read-out: IC50 values, HepG2
  IC50: 0.65 µg/mL
HepG2 cells [3]; Homo sapiens, HepG2, 0.1μM, MTT 72h, read-out: The inhibition rate of EM-d-Rha
  inhibition at 0.1 µM: 4.6 ± 5.04%
HepG2 cells [3]; Homo sapiens, HepG2, 0.5μM, MTT 72h, read-out: The inhibition rate of EM-d-Rha
  inhibition at 0.5 µM: 24.3 ± 6.54%
HepG2 cells [3]; Homo sapiens, HepG2, 2.5μM, MTT 72h, read-out: The inhibition rate of EM-d-Rha
  inhibition at 2.5 µM: 70.7 ± 3.54%
HepG2 cells [3]; Homo sapiens, HepG2, 12.5μM, MTT 72h, read-out: The inhibition rate of EM-d-Rha
  inhibition at 12.5 µM: 90.97 ± 0.72%
HepG2 cells [3]; Homo sapiens, HepG2, 62.5μM, MTT 72h, read-out: The inhibition rate of EM-d-Rha
  inhibition at 62.5 µM: 91.46 ± 0.46%
HepG2 cells [3]; from Table 1
  Decrease of IC50 compared to the IC50 of emodin, HepG2: 19.68 fold
OVCAR-3 cells; OVCAR-3, 2.5μM
  Late apoptosis: 3.30±2.95%
  Early apoptosis: 70.60±23.06 %
  Living cell: 25.82±20.14 %
OVCAR-3 cells; OVCAR-3, 5μM
  Late apoptosis: 0.81±0.05 %
  Early apoptosis: 90.52±0.20 %
  Living cell: 8.60±0.19 %
OVCAR-3 cells; OVCAR-3, 10μM
  Late apoptosis: 0.35±0.06 %
OVCAR-3 cells; [4]
  Early apoptosis: 95.09% and 95.09±1.03 %
  Living cell: 4.53% and 4.53±0.99 %
MDCK cells
  IC50: 18.5 µg/mL (≈ 25.3 µM)
